Data published in patent publication US20230407243A1, “GENETIC PLATFORM TO INVESTIGATE THE FUNCTIONS OF BACTERIAL DRUG EFFLUX PUMPS” (priority 2022, published 2023).

Legend:
Assay in all cases: MIC susceptibility profiling, efflux platform
Format in all cases: cell-based, Escherichia coli
EKO-35 araC::acrB = conditions: for Fold change of MICs: EKO-35 araC::acrB compared to EKO-35; for MIC: Escherichia coli, read-out: Minimum Inhibitory Concentration, EKO-35 araC::acrB; for MIC / Minimum Inhibitory Concentration, EKO-35 araC::acrB: Table 13A, non-porinated, technical duplicate
Outline: (§1)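 Broth MIC in cation-adjusted Mueller-Hinton (MHB II) following twofold compound titration in duplicate. Bacteria were prepared at OD600 ~1.0 in PBS and diluted 1/2000. Endpoint OD600 after 18 h at 37 °C was corrected using the pre-incubation reading.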

EKO-35 araC::emrKY = conditions: for Fold change of MICs: EKO-35 araC::emrKY compared to EKO-35; for MIC: Escherichia coli, read-out: Minimum Inhibitory Concentration, EKO-35 araC::emrKY; for MIC / Minimum Inhibitory Concentration, EKO-35 araC::emrKY: Table 13B, non-porinated, technical duplicate
Outline: as §1

EKO-35 araC::macAB = conditions: for Fold change of MICs: EKO-35 araC::macAB compared to EKO-35; for MIC: Escherichia coli, read-out: Minimum Inhibitory Concentration, EKO-35 araC::macAB; for MIC / Minimum Inhibitory Concentration, EKO-35 araC::macAB: Table 13B, non-porinated, technical duplicate
Outline: as §1

EKO-35 araC::acrBD408A = conditions: for Fold change of MICs: EKO-35 araC::acrBD408A compared to EKO-35; for MIC: Escherichia coli, read-out: Minimum Inhibitory Concentration, EKO-35 araC::acrBD408A; for MIC / Minimum Inhibitory Concentration, EKO-35 araC::acrBD408A: Table 13B, non-porinated, technical duplicate
Outline: as §1

EKO-35 araC::emrAB = conditions: for Fold change of MICs: EKO-35 araC::emrAB compared to EKO-35; for MIC: Escherichia coli, read-out: Minimum Inhibitory Concentration, EKO-35 araC::emrAB; for MIC / Minimum Inhibitory Concentration, EKO-35 araC::emrAB: Table 13B, non-porinated, technical duplicate
Outline: as §1

[1] = test system: EKO-35 araC::mexCD (MexCD from P. aeruginosa); conditions: for Fold change of MICs: EKO-35 araC::mexCD compared to EKO-35; for MIC / Minimum Inhibitory Concentration, EKO-35 araC::mexCD: Table 13B, non-porinated, technical duplicate; for MIC: read-out: Minimum Inhibitory Concentration, EKO-35 araC::mexCD
Outline: as §1

EKO-35 araC::acrEF = conditions: for Fold change of MICs: EKO-35 araC::acrEF compared to EKO-35; for MIC: Escherichia coli, read-out: Minimum Inhibitory Concentration, EKO-35 araC::acrEF; for MIC / Minimum Inhibitory Concentration, EKO-35 araC::acrEF: Table 13A, non-porinated, technical duplicate
Outline: as §1

EKO-35 araC::acrD = conditions: for Fold change of MICs: EKO-35 araC::acrD compared to EKO-35; for MIC: Escherichia coli, read-out: Minimum Inhibitory Concentration, EKO-35 araC::acrD; for MIC / Minimum Inhibitory Concentration, EKO-35 araC::acrD: Table 13A, non-porinated, technical duplicate
Outline: as §1

SMILES | Fold change of MICs (EKO-35 araC::acrB) [fold] | MIC (EKO-35 araC::acrB) [µg/mL] | Fold change of MICs (EKO-35 araC::emrKY) [fold] | MIC (EKO-35 araC::emrKY) [µg/mL] | Fold change of MICs (EKO-35 araC::macAB) [fold] | MIC (EKO-35 araC::macAB) [µg/mL] | Fold change of MICs (EKO-35 araC::acrBD408A) [fold] | MIC (EKO-35 araC::acrBD408A) [µg/mL] | Fold change of MICs (EKO-35 araC::emrAB) [fold] | MIC (EKO-35 araC::emrAB) [µg/mL] | Fold change of MICs [1] [fold] | MIC [1] [µg/mL] | Fold change of MICs (EKO-35 araC::acrEF) [fold] | MIC (EKO-35 araC::acrEF) [µg/mL] | Fold change of MICs (EKO-35 araC::acrD) [fold] | MIC (EKO-35 araC::acrD) [µg/mL] | other results
CN[C@@H]1[C@H](O)[C@H](NC)[C@H]2O[C@@]3(O)C(=O)C[C@@H](C)O[C@H]3O[C@@H]2[C@H]1O [Spectinomycin] | 1 | 25 | 1 | 25 | 1 | 25 | 1 | 25 | 1 | 25 | 1 | 25 | 1 | 25 | 1 | 25 | –
NCCCNCCCCNCCCN [Spermine] | 1 | – | 1 | – | 1 | – | 1 | – | 1 | – | 1 | 2000 | 1 | – | 1 | – | –
[H]/N=C(/N)N[C@H]1[C@H](O)[C@@H](O)[C@H](O[C@@H]2O[C@@H](C)[C@](O)(C=O)[C@H]2O[C@@H]2O[C@@H](CO)[C@H](O)[C@@H](O)[C@@H]2NC)[C@@H](N/C(N)=N\[H])[C@@H]1O [Streptomycin] | 2 | 6.25 | 1 | 3.12 | 1 | 3.12 | 1 | 3.12 | 1 | 3.12 | 1 | 3.12 | 1 | 3.12 | 2 | 6.25 | –
Nc1ccc(S(=O)(=O)Nc2nccs2)cc1 [Sulfathiazole] | 1 | 10 | 1 | 10 | 1 | – | 1 | 10 | 1 | 10 | 1 | 10 | 1 | 10 | 1 | 10 | –
C[n+]1c2cc(N)ccc2cc2ccc(N)cc21.[Cl-] [acriflavine] | 32 | – | 1 | – | 1 | – | 1 | – | 1 | – | 8 | – | 8 | – | 2 | – | Minimum Inhibitory Concentration, EKO-35 araC::acrB (EKO-35 araC::acrB): 3.125 µg/mL; restoration of resistance to wild-type levels by acrB alone (EKO-35 araC::acrB; overexpression of acrB in EKO-35): did not restore resistance to wild-type levels; Minimum Inhibitory Concentration, EKO-35 araC::emrKY (EKO-35 araC::emrKY): 0.098 µg/mL; Minimum Inhibitory Concentration, EKO-35 araC::macAB (EKO-35 araC::macAB): 0.098 µg/mL; Minimum Inhibitory Concentration, EKO-35 araC::acrBD408A (EKO-35 araC::acrBD408A): 0.098 µg/mL; Minimum Inhibitory Concentration, EKO-35 araC::emrAB (EKO-35 araC::emrAB): 0.098 µg/mL; Minimum Inhibitory Concentration, EKO-35 araC::mexCD [1]: 0.781 µg/mL; Minimum Inhibitory Concentration, EKO-35 araC::acrEF (EKO-35 araC::acrEF): 0.781 µg/mL; Minimum Inhibitory Concentration, EKO-35 araC::acrD (EKO-35 araC::acrD): 0.195 µg/mL
CC1(C)S[C@@H]2[C@H](NC(=O)[C@H](N)c3ccccc3)C(=O)N2[C@H]1C(=O)O [ampicillin] | 4 | 100 | 1 | 25 | 1 | – | 1 | 25 | 1 | 25 | 1 | 25 | 2 | 50 | 4 | 100 | –
CC[C@H]1OC(=O)[C@H](C)[C@@H](O[C@H]2C[C@@](C)(OC)[C@@H](O)[C@H](C)O2)[C@H](C)[C@@H](O[C@@H]2O[C@H](C)C[C@H](N(C)C)[C@H]2O)[C@](C)(O)C[C@@H](C)CN(C)[C@H](C)[C@@H](O)[C@]1(C)O [azithromycin] | 16 | 12.5 | 1 | – | 4 | 3.12 | 1 | 0.781 | 1 | 0.781 | 4 | 3.12 | 8 | 6.25 | 1 | 0.781 | efflux pump-mediated resistance vs EKO-35 (EKO-35 araC::macAB; MacAB): specific
O=C(N[C@H](CO)[C@H](O)c1ccc([N+](=O)[O-])cc1)C(Cl)Cl [chloramphenicol] | 8 | 6.25 | 1 | 0.391 | 1 | 0.781 | 1 | 0.781 | 1 | 0.781 | 1 | 0.781 | 2 | 1.56 | 2 | 1.56 | –
O=C(Nc1cccc(Oc2c(F)c(F)c(F)c(F)c2F)c1)c1ccccc1 [compound 1] | 1 | – | 1 | – | 1 | – | 1 | – | 1 | – | 1 | – | 1 | – | 1 | – | Minimum Inhibitory Concentration, EKO-35 araC::acrB (EKO-35 araC::acrB): 320 µg/mL; Minimum Inhibitory Concentration, EKO-35 araC::emrKY (EKO-35 araC::emrKY): 320 µg/mL; Minimum Inhibitory Concentration, EKO-35 araC::macAB (EKO-35 araC::macAB): 320 µg/mL; Minimum Inhibitory Concentration, EKO-35 araC::acrBD408A (EKO-35 araC::acrBD408A): 320 µg/mL; Minimum Inhibitory Concentration, EKO-35 araC::emrAB (EKO-35 araC::emrAB): 320 µg/mL; Minimum Inhibitory Concentration, EKO-35 araC::mexCD [1]: 320 µg/mL; Minimum Inhibitory Concentration, EKO-35 araC::acrEF (EKO-35 araC::acrEF): 320 µg/mL; Minimum Inhibitory Concentration, EKO-35 araC::acrD (EKO-35 araC::acrD): 320 µg/mL
